Measurements as given in patent US11401277B2, “Anti-bacterial heterocyclic compounds and their synthesis” (Bugworks Research, Inc., priority 2017, dated 2022).
Values joined by “and” are separate entries in the source; they are usually repeats but may differ in a detail not shown here. Equal entries are not always repeated.

What was measured:
E. coli [ATCC25922] [1] = assay: Urinary Tract Infection Rat Model (kidneys, bladder); details: for MEAN ± SD (Log10 CFU/g kidneys) / MEAN ± SD (Log10 CFU/ml Bladder) / Mean Log10CFU/g kidney reduction (wrt 4 h PI control: 4.53 Log10CFU/g kidneys) / Mean Log10 CFU/ml Bladder reduction (wrt 4 h PI control: 5.72 CFU/ml Bladder) / Log10 CFU/g (Left Kidney) / Log10 CFU/g (Right Kidney) / Log10 CFU/ml Bladder: i.v., 1 h infusion; for Log10 CFU/g (Left Kidney) / Log10 CFU/g (Right Kidney) / Log10 CFU/ml Bladder: individual animals, 24 h post infection
E. coli [ATCC25922] [2] = assay: Neutropenic Thigh Infection Model in Rat, E. coli; assay type: in vivo; details: for MEAN ± SD (Log10 CFU/g thigh) / Mean Log 10 CFU/thigh reduction (wrt 2 h PI control: 5.04 Log10CFU/g thigh) / Log10 CFU/g thigh: i.v., 1 h infusion; for Log10 CFU/g thigh: individual animals, 10 hr post infection

For `Cn1c(=O)ccc2ccc(F)c(OCCNC[C@H]3CN(c4cnc5c(n4)NC(=O)CO5)C(=O)O3)c21` [Compound 2, (S)-6-(5-(((2-((7-fluoro-1-methyl-2-oxo-1,2-dihydroquinolin-8-yl)oxy)ethyl)amino)methyl)-2-oxooxazolidin-3-yl)-2H-pyrazino[2,3-b][1,4]oxazin-3(4H)-one], the “effect when compared to the 4 h PI control (in words)” value (E. coli [ATCC25922] [1]; 3 mg/kg) was “bacteriostatic”, the “MEAN ± SD (Log10 CFU/g kidneys)” value (E. coli [ATCC25922] [1]; 3 mg/kg) was 5.13 ± 0.28 Log10 CFU/g kidneys and the “MEAN ± SD (Log10 CFU/ml Bladder)” value (E. coli [ATCC25922] [1]; 3 mg/kg) was 5.89 ± 0.4 Log10 CFU/ml Bladder. For the same molecule, the “Mean Log10CFU/g kidney reduction (wrt 4 h PI control: 4.53 Log10CFU/g kidneys)” value (shortened to “Mean Log10CFU/g kidney reduction”) (E. coli [ATCC25922] [1]; 3 mg/kg) was −0.60 Log10CFU/g kidney, the “Mean Log10 CFU/ml Bladder reduction (wrt 4 h PI control: 5.72 CFU/ml Bladder)” value (from here on “Mean Log10 CFU/ml Bladder reduction”) (E. coli [ATCC25922] [1]; 3 mg/kg) was −0.17 Log10 CFU/ml Bladder and the “Log10 CFU/g (Left Kidney)” value (E. coli [ATCC25922] [1]; 3 mg/kg) was 5.39 Log10 CFU/g and 5.17 Log10 CFU/g and 5.24 Log10 CFU/g. The “Log10 CFU/g (Right Kidney)” value (E. coli [ATCC25922] [1]; 3 mg/kg) was 4.68 Log10 CFU/g and 4.90 Log10 CFU/g and 5.39 Log10 CFU/g, the “Log10 CFU/ml Bladder” value (E. coli [ATCC25922] [1]; 3 mg/kg) was 5.43 Log10 CFU/ml Bladder and 6.16 Log10 CFU/ml Bladder and 6.08 Log10 CFU/ml Bladder and the “MEAN ± SD (Log10 CFU/g kidneys)” value (E. coli [ATCC25922] [1]; 10 mg/kg) was 3.95 ± 0.33 Log10 CFU/g kidneys. For the same molecule, the “MEAN ± SD (Log10 CFU/ml Bladder)” value (E. coli [ATCC25922] [1]; 10 mg/kg) was 4.8 ± 0.2 Log10 CFU/ml Bladder, the “Mean Log10CFU/g kidney reduction” value (E. coli [ATCC25922] [1]; 10 mg/kg) was 0.58 Log10CFU/g kidney and the “Mean Log10 CFU/ml Bladder reduction” value (E. coli [ATCC25922] [1]; 10 mg/kg) was 0.92 Log10 CFU/ml Bladder. The “Log10 CFU/g (Left Kidney)” value (E. coli [ATCC25922] [1]; 10 mg/kg) was 4.12 Log10 CFU/g and 3.78 Log10 CFU/g and 4.46 Log10 CFU/g, the “Log10 CFU/g (Right Kidney)” value (E. coli [ATCC25922] [1]; 10 mg/kg) was 4.11 Log10 CFU/g and 3.65 Log10 CFU/g and 3.61 Log10 CFU/g and the “Log10 CFU/ml Bladder” value (E. coli [ATCC25922] [1]; 10 mg/kg) was 5.02 Log10 CFU/ml Bladder and 4.61 Log10 CFU/ml Bladder and 4.76 Log10 CFU/ml Bladder. The “MEAN ± SD (Log10 CFU/g kidneys)” value (E. coli [ATCC25922] [1]; 30 mg/kg) was 2.91 ± 0.31 Log10 CFU/g kidneys, the “MEAN ± SD (Log10 CFU/ml Bladder)” value (E. coli [ATCC25922] [1]; 30 mg/kg) was 3.89 ± 0.3 Log10 CFU/ml Bladder and the “Mean Log10CFU/g kidney reduction” value (E. coli [ATCC25922] [1]; 30 mg/kg) was 1.62 Log10CFU/g kidney. For the same molecule, the “Mean Log10 CFU/ml Bladder reduction” value (E. coli [ATCC25922] [1]; 30 mg/kg) was 1.83 Log10 CFU/ml Bladder, the “Log10 CFU/g (Left Kidney)” value (E. coli [ATCC25922] [1]; 30 mg/kg) was 3.22 Log10 CFU/g and 3.36 Log10 CFU/g and 2.80 Log10 CFU/g and the “Log10 CFU/g (Right Kidney)” value (E. coli [ATCC25922] [1]; 30 mg/kg) was 2.77 Log10 CFU/g and 2.75 Log10 CFU/g and 2.55 Log10 CFU/g. For the same molecule, the “Log10 CFU/ml Bladder” value (E. coli [ATCC25922] [1]; 30 mg/kg) was 4.19 Log10 CFU/ml Bladder and 3.90 Log10 CFU/ml Bladder and 3.58 Log10 CFU/ml Bladder, the “effect with respect to 4 h PI control (in words)” value (E. coli [ATCC25922] [1]; 10 and 30 mg/kg) was “significant dose dependent bactericidal effect” and the “MEAN ± SD (Log10 CFU/g thigh)” value (E. coli [ATCC25922] [2]; 3 mg/kg) was 5.08 ± 0.39 Log10 CFU/g thigh. For the same molecule, the “Mean Log 10 CFU/thigh reduction (wrt 2 h PI control: 5.04 Log10CFU/g thigh)” value (“Mean Log 10 CFU/thigh reduction” below) (E. coli [ATCC25922] [2]; 3 mg/kg) was 0.77 Log 10 CFU/thigh, the “Log10 CFU/g thigh” value (E. coli [ATCC25922] [2]; 3 mg/kg) was 5.37 Log10 CFU/g thigh and 4.64 Log10 CFU/g thigh and 5.23 Log10 CFU/g thigh and the “MEAN ± SD (Log10 CFU/g thigh)” value (E. coli [ATCC25922] [2]; 10 mg/kg) was 4.41 ± 0.18 Log10 CFU/g thigh. The “Mean Log 10 CFU/thigh reduction” value (E. coli [ATCC25922] [2]; 10 mg/kg) was 1.44 Log 10 CFU/thigh, the “Log10 CFU/g thigh” value (E. coli [ATCC25922] [2]; 10 mg/kg) was 4.44 Log10 CFU/g thigh and 4.57 Log10 CFU/g thigh and 4.21 Log10 CFU/g thigh and the “MEAN ± SD (Log10 CFU/g thigh)” value (E. coli [ATCC25922] [2]; 30 mg/kg) was 2.83 ± 0.35 Log10 CFU/g thigh. The “Mean Log 10 CFU/thigh reduction” value (E. coli [ATCC25922] [2]; 30 mg/kg) was 3.02 Log 10 CFU/thigh, the “Log10 CFU/g thigh” value (E. coli [ATCC25922] [2]; 30 mg/kg) was 2.66 Log10 CFU/g thigh and 2.6 Log10 CFU/g thigh and 3.24 Log10 CFU/g thigh and the “efficacy with respect to 2 h Post Infection (PI) control (in words)” value (E. coli [ATCC25922] [2]; 3, 10 and 30 mg/kg, rat thigh E. coli) was “significant dose dependent bactericidal efficacy”.
